Results as given in article PMC8161026, “Synthesis and Anticancer Activity Evaluation of 5-[2-Chloro-3-(4-nitrophenyl)-2-propenylidene]-4-thiazolidinones” (Molecules, 2021).

Assays:
[1] = system: EKVX; conditions: EKVX (Non-Small Cell Lung Cancer), 48 h, SRB
[2] = system: MOLT-4; assay: cells; conditions: Homo sapiens, MOLT-4, 48 h
[3] = system: OVCAR-8; assay: NCI DTP 60 cell line screen, SRB
[4] = system: PC-3; assay: cells; conditions: Homo sapiens, PC-3, 48 h
[5] = system: RPMI-8226
[6] = system: K-562
[7] = system: SR; assay: cells; conditions: Homo sapiens, 48 h
[8] = system: Ovarian Cancer subpanel; assay: cells
Protocol: (§1) At the first stage of biological activity study, the antitumor activity screening of the selected compounds 2b, 2c, 2f, 2h, and 2j was performed according to the NCI DTP (USA) standard protocol at the concentrations ranging from 10^−4 to 10^−8 M toward 60 tumor cell lines. The percentage of growth was evaluated spectrophotometrically versus controls not treated with test agents after 48 h exposure and using SRB protein assay to estimate cell viability or growth. Dose–response parameters were calculated for each cell line: GI50—molar concentration of the compound that inhibits 50% net cell growth; TGI—molar concentration of the compound leading to the total inhibition; and LC50—molar concentration of the compound leading to 50% net cell death. Furthermore, mean graph midpoints (MG_MID) were calculated for each of the parameters, giving an average activity parameter over all cell lines for the tested compound. For the MG_MID calculation, insensitive cell lines were included with the highest concentration tested.
(§2) The selectivity index (SI) obtained by dividing the full panel MG-MID (mM) of the tested compound by their individual subpanel MG-MID (mM) was considered as a measure of selectivity of anticancer activity (Table 3).
(§3) Primary anticancer assay was performed on a panel of approximately sixty human tumor cell lines derived from nine neoplastic diseases, in accordance with the protocol of the Drug Evaluation Branch, National Cancer Institute, Bethesda. Tested compounds were added to the culture at a single concentration (10^−5 M) and the cultures were incubated for 48 h. End point determinations were made with a protein binding dye, sulforhodamine B (SRB). […] The percentage growth was evaluated spectrophotometrically versus controls not treated with test agents.
(§4) Dose–response parameters (GI50, TGI, LC50) were calculated for each compound. […] The drug concentration resulting in total growth inhibition (TGI) was calculated from Ti = Tz. The LC50 (concentration of drug resulting in a 50% reduction in the measured protein at the end of the drug treatment as compared to that at the beginning) indicating a net loss of cells following treatment was calculated from [(Ti − Tz)/Tz] × 100 = −50 (2). Values were calculated for each of these parameters if the level of activity was reached; however, if the effect was not reached or was excessive, the value for that parameter was expressed as more or less than the maximum or minimum concentration tested.

[9] = system: Renal Cancer subpanel; assay: cells
Protocol: as §1, §2, §3, §4

[10] = system: Prostate Cancer subpanel; assay: cells
Protocol: as §1, §2, §3, §4

[11] = system: CNS Cancer subpanel; assay: cells
Protocol: as §1, §2, §3, §4

[12] = system: Colon Cancer subpanel; assay: cells
Protocol: as §1, §2, §3, §4

[13] = system: Leukemia subpanel; assay: cells
Protocol: as §1, §2, §3, §4

[14] = system: Melanoma subpanel; assay: cells
Protocol: as §1, §2, §3, §4

[15] = system: Breast Cancer subpanel; assay: cells
Protocol: as §1, §2, §3, §4

[16] = system: Non-Small Cell Lung Cancer subpanel; assay: cells
Protocol: as §1, §2, §3, §4

[17] = system: EKVX; assay: cells; conditions: Homo sapiens, 48 h
[18] = system: IGROV1; assay: NCI DTP 60 cell line screen, SRB
[19] = system: K-562; assay: cells; conditions: Homo sapiens, K562, 48 h
[20] = Homo sapiens, read-out: MG_MID, GI50
[21] = Homo sapiens, read-out: MG_MID, LC50
[22] = full panel MG_MID / Ovarian Cancer subpanel MG_MID
[23] = full panel MG_MID / Renal Cancer subpanel MG_MID
[24] = full panel MG_MID / Prostate Cancer subpanel MG_MID
[25] = full panel MG_MID / CNS Cancer subpanel MG_MID
[26] = full panel MG_MID / Colon Cancer subpanel MG_MID
[27] = full panel MG_MID / Leukemia subpanel MG_MID
[28] = full panel MG_MID / Melanoma subpanel MG_MID
[29] = full panel MG_MID / Breast Cancer subpanel MG_MID
[30] = full panel MG_MID / Non-Small Cell Lung Cancer subpanel MG_MID

SMILES: O=C1/C(=C/C(Cl)=C/c2ccc([N+](=O)[O-])cc2)SC(=S)N1c1ccc(O)cc1 [Compound 2f, 5-[(Z,2Z)-2-Chloro-3-(4-nitrophenyl)-2-propenylidene]-3-(4-hydroxyphenyl)-2-thioxo-4-thiazolidinone]
- TGI [1]: 16.2 µM
- GI50 [2]: 0.389 µM
- CC50 ([2]; read-out: LC50): > 100 µM
- GI50 ([3]; Homo sapiens, OVCAR-8, 48 h): 1.14 µM
- CC50 ([3]; Homo sapiens, OVCAR-8, 48 h, read-out: LC50): > 100 µM
- TGI ([3]; OVCAR-8 (Ovarian Cancer), 48 h, SRB): 22.9 µM
- GI50 [4]: 2.29 µM
- CC50 ([4]; read-out: LC50): > 100 µM
- TI (Therapeutic Index) ([5]; GI50 (normal blood lymphocyte)/GI50 (RPMI-8226)): >10,000
- TGI ([5]; RPMI-8226 (Leukemia), 48 h, SRB): 0.264 µM
- TI (Therapeutic Index) ([6]; GI50 (normal blood lymphocyte)/GI50 (K-562)): >191.94
- TGI ([6]; K-562 (Leukemia), 48 h, SRB): > 100 µM
- GI50 [7]: 0.01 µM
- CC50 ([7]; read-out: LC50): > 100 µM
- GI50 [8, 20]: 3.32 µM
- CC50 [8, 21]: > 100 µM
- MG_MID, TGI ([8]; Ovarian Cancer panel mean): 42.5 µM
- SI (selectivity index), GI50 [8, 22]: 0.84
- SI (selectivity index), LC50 [8, 22]: <0.81
- SI (selectivity index), TGI [8, 22]: 0.76
- GI50 [9, 20]: 2.85 µM
- CC50 [9, 21]: 69.1 µM
- MG_MID, TGI ([9]; Renal Cancer panel mean): 24.1 µM
- SI (selectivity index), GI50 [9, 23]: 0.98
- SI (selectivity index), LC50 [9, 23]: 1.17
- SI (selectivity index), TGI [9, 23]: 1.34
- GI50 [10, 20]: 1.48 µM
- CC50 [10, 21]: 75.1 µM
- SI (selectivity index), GI50 [10, 24]: 1.89
- SI (selectivity index), LC50 [10, 24]: 1.08
- SI (selectivity index), TGI [10, 24]: 0.71
- MG_MID, TGI ([11]; CNS Cancer panel mean): 30.6 µM
- GI50 [11, 20]: 6.72 µM
- CC50 [11, 21]: 77.4 µM
- SI (selectivity index), GI50 [11, 25]: 0.42
- SI (selectivity index), LC50 [11, 25]: 1.04
- SI (selectivity index), TGI [11, 25]: 1.05
- MG_MID, TGI ([12]; Colon Cancer panel mean): 67.4 µM
- GI50 [12, 20]: 1.84 µM
- CC50 [12, 21]: 84.5 µM
- SI (selectivity index), GI50 [12, 26]: 1.52
- SI (selectivity index), LC50 [12, 26]: 0.96
- SI (selectivity index), TGI [12, 26]: 0.48
- TI (Therapeutic Index) ([13]; GI50 (normal blood lymphocyte)/GI50 (Leukemia Panel)): >353.36
- GI50 [13, 20]: 0.283 µM
- CC50 [13, 21]: > 100 µM
- MG_MID, TGI ([13]; Leukemia panel mean): 41.0 µM
- SI (selectivity index), GI50 [13, 27]: 9.89
- SI (selectivity index), LC50 [13, 27]: <0.81
- SI (selectivity index), TGI [13, 27]: 0.78
- GI50 [14, 20]: 2.63 µM
- CC50 [14, 21]: 52.3 µM
- MG_MID, TGI ([14]; Melanoma panel mean): 14.4 µM
- SI (selectivity index), GI50 [14, 28]: 1.06
- SI (selectivity index), LC50 [14, 28]: 1.54
- SI (selectivity index), TGI [14, 28]: 2.23
- MG_MID, TGI ([15]; Breast Cancer panel mean): 11.6 µM
- GI50 [15, 20]: 1.89 µM
- CC50 [15, 21]: 98.7 µM
- SI (selectivity index), GI50 [15, 29]: 1.48
- SI (selectivity index), LC50 [15, 29]: 0.82
- SI (selectivity index), TGI [15, 29]: 2.78
- GI50 [16, 20]: 2.93 µM
- CC50 [16, 21]: 74 µM
- MG_MID, TGI ([16]; Non-Small Cell Lung Cancer panel mean): 26.6 µM
- SI (selectivity index), GI50 [16, 30]: 0.96
- SI (selectivity index), LC50 [16, 30]: 1.09
- SI (selectivity index), TGI [16, 30]: 1.21
- GI50 [17]: 2.37 µM
- CC50 ([17]; read-out: LC50): > 100 µM
- GI50 ([18]; Homo sapiens, IGROV-1, 48 h): 1.63 µM
- CC50 ([18]; Homo sapiens, IGROV-1, 48 h, read-out: LC50): > 100 µM
- TGI ([18]; IGROV1 (Ovarian Cancer), 48 h, SRB): 6.13 µM
- GI50 [19]: 0.521 µM
- CC50 ([19]; read-out: LC50): > 100 µM
